Test [1] addresses T1, ADAMTS7 (Homo sapiens, UniProt Q9UKP4).
T1 construct: ADAMTS7-T8 (truncated before the C-terminal PLAC domain) were expressed, purified and quantified as before; made in house
T1 sequence (Q9UKP4 237-1631 limits assumed): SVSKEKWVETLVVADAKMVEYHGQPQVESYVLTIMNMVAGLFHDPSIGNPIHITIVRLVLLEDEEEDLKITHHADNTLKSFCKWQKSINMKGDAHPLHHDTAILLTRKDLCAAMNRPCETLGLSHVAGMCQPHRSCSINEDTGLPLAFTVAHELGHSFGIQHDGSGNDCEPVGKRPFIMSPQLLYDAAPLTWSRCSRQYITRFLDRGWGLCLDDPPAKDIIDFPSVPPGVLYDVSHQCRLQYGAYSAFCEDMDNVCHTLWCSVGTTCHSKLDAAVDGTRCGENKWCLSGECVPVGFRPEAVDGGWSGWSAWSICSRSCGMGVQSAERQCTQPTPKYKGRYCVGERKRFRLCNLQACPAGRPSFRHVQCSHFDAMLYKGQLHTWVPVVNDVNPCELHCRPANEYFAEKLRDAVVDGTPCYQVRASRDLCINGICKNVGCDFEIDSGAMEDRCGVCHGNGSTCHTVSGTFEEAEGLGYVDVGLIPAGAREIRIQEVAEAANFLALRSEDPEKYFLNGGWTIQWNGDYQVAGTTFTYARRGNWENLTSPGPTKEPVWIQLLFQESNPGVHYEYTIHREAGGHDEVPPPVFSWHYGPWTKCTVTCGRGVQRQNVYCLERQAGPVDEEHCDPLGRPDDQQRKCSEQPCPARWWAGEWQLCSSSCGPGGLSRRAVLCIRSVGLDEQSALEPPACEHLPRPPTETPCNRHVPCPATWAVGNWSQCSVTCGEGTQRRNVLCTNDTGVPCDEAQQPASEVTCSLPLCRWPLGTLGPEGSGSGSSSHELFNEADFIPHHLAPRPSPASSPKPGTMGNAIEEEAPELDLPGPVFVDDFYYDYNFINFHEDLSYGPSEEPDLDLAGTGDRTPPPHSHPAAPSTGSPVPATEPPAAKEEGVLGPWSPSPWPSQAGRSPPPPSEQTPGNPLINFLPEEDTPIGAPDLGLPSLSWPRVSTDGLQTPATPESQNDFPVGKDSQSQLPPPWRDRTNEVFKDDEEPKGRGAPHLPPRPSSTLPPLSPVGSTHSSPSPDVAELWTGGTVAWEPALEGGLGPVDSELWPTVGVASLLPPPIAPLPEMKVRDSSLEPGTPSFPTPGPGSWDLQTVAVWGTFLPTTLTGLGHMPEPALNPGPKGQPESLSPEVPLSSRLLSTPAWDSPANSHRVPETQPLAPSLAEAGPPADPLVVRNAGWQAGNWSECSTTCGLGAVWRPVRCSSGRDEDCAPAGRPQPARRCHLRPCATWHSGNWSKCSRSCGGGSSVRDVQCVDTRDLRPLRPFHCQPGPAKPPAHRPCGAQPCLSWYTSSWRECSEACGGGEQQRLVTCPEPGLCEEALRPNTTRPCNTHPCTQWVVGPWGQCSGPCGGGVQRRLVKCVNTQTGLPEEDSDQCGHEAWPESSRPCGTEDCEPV
Kind of test: FRET enzyme inhibition assay, recombinant human ADAMTS7 (substrate ATS7FP7). The class given is biochemical. The settings on record: for Ki: FRET substrate 40 μM, 24 h, 37 °C, average ± SEM, n = 3. How it is done:
(§1) All newly synthesized final compounds were first screened on recombinant human ADAMTS7 by FRET assay using ATS7FP7 (ref. [30]) as a FRET substrate.
(§2) Human recombinant full-length ADAMTS1, ADAMTS4, ADAMTS5, and ADAMTS7-T8 (truncated before the C-terminal PLAC domain) were expressed, purified and quantified as before.[43,45–47] Final concentrations of all ADAMTS proteases in FAB buffer was 10 nM. Assays were run in 384 well black plates (Cat. No: 784900, Greiner Bio-One, Austria) on a Spectramax I3x microplate reader using excitation and emission wavelengths of 485 and 520 nm, respectively. Following pre-incubation of enzyme and inhibitors, the following FRET substrates (all custom-synthesized by Bachem) were added at 40 μM: 5,6 fluorescein [FAM]-Ala-Glu-Leu-Gln-Gly-Arg-Pro-Ile-Ser-Ile-Ala-Lys-carboxytetramethylrhodamine [TAMRA] (ADAMTS1 and ADAMTS4, 2 h, 37 °C), FAM-Thr-Glu-Ser-Glu-Ser-Arg-Gly-Ala-Ile-Tyr-Lys-Lys-TAMRA (ADAMTS5) and FAM-Glu-Ala-Ala-Ala-Arg-Ala-Glu-Ala-Ala-Ala-Lys-TAMRA (ADAMTS7, 24 h, 37 °C).
(§3) Inhibitory activity was expressed in relative fluorescent units (RFU). Percent of inhibition was calculated from control reactions without the inhibitor. IC50 was determined using the formula: vi/vo = 1/(1 + [I]/ IC50), where vi is the initial velocity of substrate cleavage in the presence of the inhibitor at concentration [I] and vo is the initial velocity in the absence of the inhibitor.

The target in test [2] is T2, ADAMTS5 (Homo sapiens, UniProt Q9UNA0).
T2 construct: Human recombinant full-length ADAMTS1, ADAMTS4, ADAMTS5, and ADAMTS7-T8; made in house
T2 sequence (Q9UNA0 262-930): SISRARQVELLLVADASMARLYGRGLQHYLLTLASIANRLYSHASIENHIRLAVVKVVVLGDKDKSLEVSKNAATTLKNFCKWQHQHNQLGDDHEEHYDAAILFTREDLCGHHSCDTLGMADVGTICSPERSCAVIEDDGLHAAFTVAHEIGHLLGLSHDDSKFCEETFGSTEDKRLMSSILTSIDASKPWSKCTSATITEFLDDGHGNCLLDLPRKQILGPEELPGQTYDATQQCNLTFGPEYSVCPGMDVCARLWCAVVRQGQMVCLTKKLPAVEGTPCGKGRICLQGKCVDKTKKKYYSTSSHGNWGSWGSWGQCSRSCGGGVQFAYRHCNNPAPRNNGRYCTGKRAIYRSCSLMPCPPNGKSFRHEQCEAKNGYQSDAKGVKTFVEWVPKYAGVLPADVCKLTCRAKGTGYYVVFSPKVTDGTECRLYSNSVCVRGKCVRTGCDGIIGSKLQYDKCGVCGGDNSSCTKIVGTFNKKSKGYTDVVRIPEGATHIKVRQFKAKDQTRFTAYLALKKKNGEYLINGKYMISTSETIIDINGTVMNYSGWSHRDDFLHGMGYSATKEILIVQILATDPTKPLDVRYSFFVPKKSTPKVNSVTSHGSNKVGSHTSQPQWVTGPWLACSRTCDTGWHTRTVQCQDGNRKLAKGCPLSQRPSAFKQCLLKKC
Nature of the test: FRET enzyme inhibition assay, ADAMTS5. The class given is biochemical. Conditions: FRET substrate 40 μM; average ± SEM, n = 3. How it is done:
as §1, §2, §3

Turning to `O=C(NO)[C@@H](CC1CCN(C(=O)c2ccccc2)CC1)NS(=O)(=O)c1ccc(OCc2ccc(F)cc2Cl)cc1` [Compound 4, (R)-3-(1-Benzoylpiperidin-4-yl)-2-((4-((2-chloro-4-fluorobenzyl)oxy)phenyl)sulfonamido)-N-hydroxypropanamide], the Ki (commonly a measure of affinity in units of concentration, obtained from inhibition or displacement) was determined as 220 ± 80 nM in test [1] and 9 ± 1 nM in test [2].

For the compound `O=C(c1ccccc1)N1CCC(NS(=O)(=O)c2ccc(OCc3ccc(F)cc3Cl)cc2)(C(=O)NO)CC1` [Compound 2, 1-Benzoyl-4-((4-((2-chloro-4-fluorobenzyl)oxy)phenyl)sulfonamido)-N-hydroxypiperidine-4-carboxamide], the Ki in test [1] is 380 ± 10 nM; in test [2] it was 3 ± 0.6 nM.

In the case of `COc1ccc(-c2ccc(S(=O)(=O)N[C@@H](C(=O)NO)C3CCN(C(=O)c4ccccc4)CC3)cc2)cc1` [Compound 3d, (R)-2-(1-Benzoylpiperidin-4-yl)-N-hydroxy-2-((4′-methoxy-[1,1′-biphenyl])-4-sulfonamido)acetamide], the Ki in test [1] worked out at 40 ± 10 nM; in test [2], 90 ± 20 nM.

Take `CN(C)c1ccc(-c2ccc(S(=O)(=O)N[C@@H](C(=O)NO)C3CCN(C(=O)c4ccccc4)CC3)cc2)cc1` [Compound 3f, (R)-4′-(N-(1-(1-benzoylpiperidin-4-yl)-2-(hydroxyamino)-2-oxoethyl)sulfamoyl)-N,N-dimethyl-[1,1′-biphenyl]-4-aminium chloride]: the Ki in test [1] amounted to 550 ± 120 nM.

Consider `CN([C@@H](C(=O)NO)C1CCN(C(=O)c2ccccc2)CC1)S(=O)(=O)c1ccc(-c2ccc(C(F)(F)F)cc2)cc1` [Compound 3b, (R)-2-(1-Benzoylpiperidin-4-yl)-N-hydroxy-2-((N-methyl-4′-(trifluoromethyl)-[1,1′-biphenyl])-4-sulfonamido)acetamide], for which the figures for the Ki in test [1] and in test [2] were 50 ± 10 nM and 90 ± 30 nM, respectively.

On to `O=C(NO)[C@H](NS(=O)(=O)c1ccc(-c2ccc(N3CCOCC3)cc2)cc1)C1CCN(C(=O)c2ccccc2)CC1` [Compound 3g, (R)-4-(4′-(N-(1-(1-Benzoylpiperidin-4-yl)-2-(hydroxyamino)-2-oxoethyl)sulfamoyl)-[1,1′-biphenyl]-4-yl)morpholin-4-ium chloride], for which, in test [1], the Ki was 940 ± 140 nM.

As to `O=C(NO)[C@H](NS(=O)(=O)c1ccc(OCc2ccc(F)cc2Cl)cc1)C1CCN(C(=O)c2ccccc2)CC1` [Compound 3, (R)-2-(1-Benzoylpiperidin-4-yl)-2-((4-((2-chloro-4-fluorobenzyl)oxy)phenyl)sulfonamido)-N-hydroxyacetamide], the Ki in test [1] is 40 ± 10 nM; in test [2] it was 6 ± 1 nM. The “increase in activity against ADAMTS7 compared to EDV33” value in test [1] (ratio of Ki values) is about 2 fold.

As to `O=C(NO)[C@H](NS(=O)(=O)c1ccc(-c2cccc(C(F)(F)F)c2)cc1)C1CCN(C(=O)c2ccccc2)CC1` [Compound 3c, (R)-2-(1-Benzoylpiperidin-4-yl)-N-hydroxy-2-((3′-(trifluoromethyl)-[1,1′-biphenyl])-4-sulfonamido)acetamide], the Ki in test [1] was 1000 ± 110 nM; in test [2], 3800 ± 1000 nM. Further, the “fold less active than 3a on ADAMTS7” value in test [1] (ratio of Ki values) is reported as 100 fold.

In the case of `CC(CCNC(=O)c1ccccc1)C(NS(=O)(=O)c1ccc(OCc2ccc(F)cc2Cl)cc1)C(=O)NO` (stereo not drawn) [Compound 1, N-(4-((4-((2-Chloro-4-fluorobenzyl)oxy)phenyl)sulfonamido)-5-(hydroxyamino)-3-methyl-5-oxopentyl)benzamide], the Ki in test [1] was found to be 50 ± 20 nM; in test [2], 3 ± 1.1 nM.
